# Laboratory results: paper PMC7145288, “New Peptide-Based Pharmacophore Activates 20S Proteasome” (Molecules, 2020)
# Legend:
# [1] = tested on: proteasome ChT-L activity in SK-N-SH (ATCC HTB-11) cell lysates; assay: ChT-L proteasome activity in lysates of treated SK-N-SH cells; assay type: cell-based, human; details: SK-N-SH cells; for Proteasome ChT-L activity in lysates of treated cells versus control lysates (in words): 1 µM peptide, 24 h, 1 μg lysate, 50 μM Suc-LLVY-AMC, n = 3–4
# Experimental: […] The content of live cells was determined by the Trypan Blue-exclusion assay. The cells were harvested, washed twice in PBS, resuspended in dilution buffer (see above) and stored in −80 °C. To prepare lysates the thawed preparations were vortexed with glass beads and centrifuged for 5 min 5000× g (4 °C). The supernatant was centrifuged for 20 min 14,000× g (4 °C). The resulting supernatant—“crude lysate” was diluted to 1 mg/mL of total protein with dilution buffer. 1 μg of lysate per assay (reaction buffer: 50 mM Tris/HCl pH 8, 0.1 mM MgCl2, 0.2 mM ATP, 0.1 mM dithiothreitol, 50 μM Suc-LLVY-AMC) was used for determination of ChT-L activity in a 96-well format, as above.
# [2] = tested on: 20S core proteasome α face pockets; assay: Competition with Rpt C-terminal tail peptides for α face pockets (ChT-L activity); assay type: biochemical, human; details: Rpt peptide 1 μM added before TAT peptide; for Competition with Rpt tail peptides (in words, from radar plot scores): Rpt2 α3/α4, Rpt3 α1/α2, Rpt5 α5/α6, Rpt6 α2/α3 pocket, three to six experiments; for Enhanced (synergistic) activation with Rpt tail peptides (in words): Rpt5 or Rpt6 tails
# Excerpt: As mentioned above, the binding pockets on the α face accept “anchors” from natural protein ligands of the 20S core. […] The 10-residue Rpt-derived C-terminal “tail” peptides (“Rpt peptides”) can be used as competitors with the Rpt subunits or with small allosteric ligands. Importantly, the Rpt peptides interject between the subunits with their C-termini, whereas TAT peptides, according to the modeling, use their N-termini for this purpose. To test the specificity of interactions between TAT compounds and the α face, we performed competition experiments. The 20S core was challenged with selected TAT compounds after treatment with Rpt peptides. We selected peptides of Rpt2 ([…]), Rpt3 ([…]), Rpt5 ([…]) and Rpt6 […]) subunits, docking in α3/α4, α1/α2, α5/α6 and α2/α3 pockets, respectively. Tails of Rpt2, 3, and 5 display the canonical HbYX motif, whereas the LeuTrpLys C-terminus of Rpt6 may be considered “pseudo-HbYX”, with a bulky Trp replacing Tyr. Results of the competition experiments are presented as radar plots in Figure 7. […] This pocket also emerged as the major binding site for (1) and (8). However, these compounds likely weakly competed with the Rpt2 tail for binding to the α3/α4 pocket as well. The α3/α4 pocket seemed to be favored by (6). […] These complex patterns point at the importance of allosteric effects between the α face ligands, the gate and the catalytic chamber.
# Figure 7 TAT1 derivatives competed with selected C-terminal tails of Rpt (Regulatory Particle ATPases) subunits for binding to specific α face pockets. The scores presented in radar plots were calculated as ((relative activation by the [x] and Rpt tail)-(theoretical sum of activation by [x] and Rpt tail))/(theoretical sum of activation by [x] and Rpt tail), where [x] represent any TAT peptide. […] The positive scores for combinations of selected compounds with Rpt5 or Rpt6 tails indicated a presumed synergy in activation of the core. Average scores derived from three to six experiments are presented. The competition effects were statistically significant (at least p < 0.05) for Rpt3 peptide and (1) and (8), as well as for Rpt2 peptide and (6).
# Human housekeeping core (20S) proteasome purified from erythrocytes was purchased from Boston Biochem, Inc. (Cambridge, MA) or from Enzo Life Sciences, Inc. (Farmingdale, NY). Multiple batches of the proteasomes were used and performed reproducibly. The stock proteasome was diluted to 0.2 mg/mL working solution in “dilution buffer” (50 mM Tris/HCl, pH 8, 20% glycerol). The following model peptide substrates, all releasing fluorescent 7-amino-4-methylcoumarin (AMC) reporter group after cleavage, were used: succinyl-LeuLeuValTyr-AMC (for the ChT-L peptidase; SucLLVY-AMC; Bachem Bioscience Inc., Philadelphia, PA), butoxycarbonyl-LeuArgArg-AMC (T-L; Bachem Bioscience Inc., Philadelphia, PA) and carbobenzoxy- LeuLeuGlu-AMC (PGPH; Enzo Life Sciences Inc., Farmingdale, NY). The substrates were used at concentration of 50 μM (ChT-L) or 100 μM (T-L, PGPH). Free AMC (Sigma-Aldrich, St. Louis, MO) was used as the standard. The C-terminal peptides derived from Rpt2, Rpt3, Rpt5 and Rpt6 were synthesized (standard solid-phase peptide chemistry) and purified to at least 98% purity by GenScript (Piscataway, NJ). The TAT peptides, Rpt peptides (except Rpt6) and the peptide substrates were dissolved in anhydrous dimethylsulfoxide (DMSO; Sigma-Aldrich, St. Louis, MO) and such stock solutions were stored at −20 °C. The total concentration of DMSO in final reaction mixtures never exceeded 3% (vol/vol). The Trp (tryptophan) -containing Rpt6 peptide was dissolved in ultrapure water and stored at −20 °C, protected from light. […]
structure (smiles),measurement,setting,value
N=C(N)NCCC[C@H](NC(=O)CN)C(=O)N[C@@H](CCCCN)C(=O)N[C@@H](CCCCN)C(=O)N[C@@H](CCCNC(=N)N)C(=O)N[C@@H](CCCNC(=N)N)C(=O)N[C@@H](CCC(N)=O)C(=O)N1Cc2ccccc2C[C@H]1C(=O)N1[C@@H](C(=O)N[C@@H](CCCNC(=N)N)C(=O)N2CCC[C@H]2C(=O)N[C@@H](CO)C(=O)O)C[C@H]2CCCC[C@H]21 [(5)],Proteasome ChT-L activity in lysates of treated cells versus control lysates (in words),[1],significantly higher than activity in control lysates
same,"Dose dependent proteasome activation, 4 h versus 24 h exposure (in words)","[1]; 0.5 or 1.0 µM, 4 or 24 h",substantially stronger after 4 h exposure than after 24 h
same,"Competition with Rpt tail peptides (in words, from radar plot scores)",[2],competed fairly specifically with Rpt3 tail
same,Enhanced (synergistic) activation with Rpt tail peptides (in words),[2],"enhanced activation in the presence of one of Rpt tails, namely Rpt5 or Rpt6"
NCCCC[C@H](NC(=O)[C@H](CCCCN)NC(=O)[C@H](CCCCN)NC(=O)c1cc(NC(=O)[C@H](CCCCN)NC(=O)[C@H](CCCCN)NC(=O)[C@@H](N)CCCCN)cc(NC(=O)[C@H](CCCCN)NC(=O)[C@H](CCCCN)NC(=O)[C@@H](N)CCCCN)c1)C(=O)O [(8)],Proteasome ChT-L activity in lysates of treated cells versus control lysates (in words),[1],significantly higher than activity in control lysates
same,"Competition with Rpt tail peptides (in words, from radar plot scores)",[2],added a weakly negative score for the Rpt2 tail to the presumed major competitor Rpt3
same,Enhanced (synergistic) activation with Rpt tail peptides (in words),[2],"enhanced activation in the presence of one of Rpt tails, namely Rpt5 or Rpt6"
